Data as given in PMC11129182, “Development of Inhibitors, Probes, and PROTAC Provides a Complete Toolbox to Study PARK7 in the Living Cell” (Journal of Medicinal Chemistry, 2024).
Read-outs that look alike come from different tables or passages of the source.

Columns and labels:
PARK7 [1] = biological target: T1, PARK7 (Homo sapiens, UniProt Q99497); test: High-throughput screen of the crude compound library, PARK7 fluorescence polarization (FP) assay with FP reagent JYQ-107; format: biochemical; settings: for inhibition at 1.25 µM: crude compound library, read-out: HTS FP assay %Inhibition (1.25 µM)
T1 sequence (Q99497 1-189): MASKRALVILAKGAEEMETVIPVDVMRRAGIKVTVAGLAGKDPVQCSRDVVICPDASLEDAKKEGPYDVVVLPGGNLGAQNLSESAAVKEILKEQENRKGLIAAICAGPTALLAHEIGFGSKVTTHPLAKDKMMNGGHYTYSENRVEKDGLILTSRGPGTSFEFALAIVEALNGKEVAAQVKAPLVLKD

PARK7 [2] = biological target: T1, PARK7; test: Hit validation and pure-compound testing in the PARK7 FP assay with JYQ-107; format: biochemical; settings: for inhibition at 0.25 µM: read-out: % Inhibition 0.25 µM
[3] = crude compounds, 0.5 µM, read-out: % Inhibition 0.5 µM

| SMILES | inhibition at 1.25 µM (PARK7 [1]) [%] | inhibition at 0.25 µM (PARK7 [2]; crude compounds, 0.25 µM) [%] | inhibition at 0.5 µM (PARK7 [2]; [3]) [%] | inhibition at 1 µM (PARK7 [2]; crude compounds) [%] | inhibition at 1.25 µM (PARK7 [1]; FP reagent JYQ-107) [%] | inhibition at 1 µM (PARK7 [1]; read-out: % inhibition in HTS) [%] | inhibition at 0.25 µM (PARK7 [2]) [%] | inhibition at 0.5 µM (PARK7 [2]; read-out: % inhibition 0.5 μM) [%] |
| --- | --- | --- | --- | --- | --- | --- | --- | --- |
| N#CN1CC[C@@H](C(=O)Nc2nc3c(s2)CN(C(=O)c2csc(C4CC4)n2)CC3)C1 [Compound 152] | 92.4 | 45.4 | 67.6 | 89.3 | – | – | – | – |
| N#CN1CC[C@@H](C(=O)Nc2nc3c(s2)CN(C(=O)c2cnn(-c4cccc(Br)c4)c2)CC3)C1 [Compound 156] | 92.6 | 50.5 | 79.8 | 94.7 | – | – | – | – |
| N#CN1CC[C@@H](C(=O)Nc2nc3c(s2)CN(C(=O)C2CC(=O)N(C4CCCCCC4)C2)CC3)C1 (stereo partly drawn) [Compound 163] | 89.6 | 43.1 | 70.9 | 90.3 | – | – | – | – |
| N#CN1CC[C@@H](C(=O)Nc2nc3c(s2)CN(C(=O)c2cc(C4CCCCC4)[nH]n2)CC3)C1 [Compound 164] | 95.1 | 48.2 | 75.6 | 94.4 | – | – | – | – |
| Cc1ccc(-c2cc(C(=O)N3CCc4nc(NC(=O)[C@@H]5CCN(C#N)C5)sc4C3)n[nH]2)s1 [Compound 165] | 95.1 | 56.4 | 82.2 | 95.6 | – | – | – | – |
| N#CN1CC[C@@H](C(=O)Nc2nc3c(s2)CN(C(=O)C2CN(S(=O)(=O)C4CC4)C2)CC3)C1 [Compound 174] | 91.8 | 35 | 63.1 | 87.7 | – | – | – | – |
| Cc1ccc([C@@H]2C[C@H]2C(=O)N2CCc3nc(NC(=O)[C@@H]4CCN(C#N)C4)sc3C2)s1 [Compound 188] | 94.2 | 53.3 | 79 | 94.5 | – | – | – | – |
| N#CN1CC[C@@H](C(=O)Nc2nc3c(s2)CN(C(=O)c2ccc(Cl)c(N4CCCS4(=O)=O)c2)CC3)C1 [Compound 197] | 95.6 | 65.4 | 85.8 | 95 | – | – | – | – |
| N#CN1CC[C@@H](C(=O)Nc2nc3c(s2)CN(C(=O)c2cccc(Cn4ccnc4)c2)CC3)C1 [Compound 215] | 91.5 | 52.1 | 78.4 | 93.3 | – | – | – | – |
| N#CN1CC[C@@H](C(=O)Nc2nc3c(s2)CN(C(=O)Cc2cnn(-c4ccccc4)n2)CC3)C1 [Compound 217] | 78.9 | 55.5 | 85.4 | 94.3 | – | – | – | – |
| N#CN1CC[C@@H](C(=O)Nc2nc3c(s2)CN(C(=O)c2cnn(-c4ccc(Br)cc4)c2)CC3)C1 [Compound 219] | 96.4 | 65.1 | 87.4 | 96.7 | – | – | – | – |
| COc1ccc(C(=O)N2CCc3nc(NC(=O)[C@@H]4CCN(C#N)C4)sc3C2)cc1S(=O)(=O)NCCCN1CCOCC1 [Compound 242] | 89.2 | 46.8 | 71.2 | 91.4 | – | – | – | – |
| N#CN1CC[C@@H](C(=O)Nc2nc3c(s2)CN(C(=O)c2ccc(-c4ccccn4)s2)CC3)C1 [Compound 258] | 89.2 | 44.4 | 72.9 | 91 | – | – | – | – |
| N#CN1CC[C@@H](C(=O)Nc2nc3c(s2)CN(C(=O)c2ccc(Oc4cccc(Cl)c4)cn2)CC3)C1 [Compound 268] | 89.7 | 33.9 | 63.1 | 82.8 | – | – | – | – |
| N#CN1CC[C@@H](C(=O)Nc2nc3c(s2)CN(C(=O)c2ccc(-c4ccccn4)nc2)CC3)C1 [Compound 274] | 92.9 | 44.5 | 71.4 | 91.8 | – | – | – | – |
| N#CN1CC[C@@H](C(=O)Nc2nc3c(s2)CN(C(=O)c2cc(-n4cccc4)ccn2)CC3)C1 [Compound 279] | 94.2 | 82.4 | 96.1 | 96.8 | – | – | – | – |

| SMILES | inhibition at 1.25 µM (PARK7 [1]) [%] | inhibition at 0.25 µM (PARK7 [2]; crude compounds, 0.25 µM) [%] | inhibition at 0.5 µM (PARK7 [2]; [3]) [%] | inhibition at 1 µM (PARK7 [2]; crude compounds) [%] | inhibition at 1.25 µM (PARK7 [1]; FP reagent JYQ-107) [%] | inhibition at 1 µM (PARK7 [1]; read-out: % inhibition in HTS) [%] | inhibition at 0.25 µM (PARK7 [2]) [%] | inhibition at 0.5 µM (PARK7 [2]; read-out: % inhibition 0.5 μM) [%] |
| --- | --- | --- | --- | --- | --- | --- | --- | --- |
| COc1ccccc1-c1cc(C(=O)N2CCc3nc(NC(=O)[C@@H]4CCN(C#N)C4)sc3C2)n[nH]1 [Compound 293] | 97.5 | 48.1 | 76 | 93 | – | – | – | – |
| N#CN1CC[C@@H](C(=O)Nc2nc3c(s2)CN(C(=O)c2cnn(-c4ccccc4)n2)CC3)C1 [Compound 295] | 89.6 | 38.6 | 65.4 | 88 | – | – | – | – |
| CN(CC1CC1)c1ccc(C(F)(F)F)cc1C(=O)N1CCc2nc(NC(=O)[C@@H]3CCN(C#N)C3)sc2C1 [Compound 304] | 93.7 | 50.5 | 73.9 | 93.7 | – | – | – | – |
| N#CN1CC[C@@H](C(=O)Nc2nc3c(s2)CN(C(=O)c2coc(C#Cc4ccccc4)c2)CC3)C1 [Compound 311] | 90.8 | 18.8 | 50.2 | 83.4 | – | – | – | – |
| N#CN1CC[C@@H](C(=O)Nc2nc3c(s2)CN(C(=O)c2cccc(Oc4ccc(Cl)cc4)n2)CC3)C1 [Compound 312] | 92.1 | 34.1 | 62.9 | 89.5 | – | – | – | – |
| N#CN1CC[C@@H](C(=O)Nc2nc3c(s2)CN(C(=O)c2cccnc2Oc2ccccc2Br)CC3)C1 [Compound 313] | 94.5 | 63 | 81.5 | 94.7 | – | – | – | – |
| N#CN1CC[C@@H](C(=O)Nc2nc3c(s2)CN(C(=O)c2cnn(-c4ccc(C(F)(F)F)cc4)c2)CC3)C1 [Compound 314] | 98.2 | 43.8 | 75.1 | 93 | – | – | – | – |
| Cc1c[nH]c(=O)n1-c1cccc(C(=O)N2CCc3nc(NC(=O)[C@@H]4CCN(C#N)C4)sc3C2)c1 [Compound 315] | 90 | 44 | 66.5 | 91.2 | – | – | – | – |
| N#CN1CC[C@@H](C(=O)Nc2nc3c(s2)CN(C(=O)CCn2nc(C(F)(F)F)cc2C2CC2)CC3)C1 [Compound 333] | 93.5 | 57.5 | 79.2 | 94.5 | – | – | – | – |
| Cn1cc(-c2cc(C(=O)N3CCc4nc(NC(=O)[C@@H]5CCN(C#N)C5)sc4C3)n[nH]2)cn1 [Compound 337] | 89.6 | 51.5 | 72.7 | 92.5 | – | – | – | – |
| N#CN1CC[C@@H](C(=O)Nc2nc3c(s2)CN(C(=O)c2cccnc2Oc2ccc(Cl)cc2Cl)CC3)C1 [Compound 345] | – | 63.1 | 85 | 95 | 92.1 | – | – | – |
| N#CN1CC[C@@H](C(=O)Nc2nc3c(s2)CN(C(=O)c2ccc(=O)n(C4CC4)c2)CC3)C1 [Compound 369] | – | 60.5 | 81 | 94.1 | 89.2 | – | – | – |
| N#CN1CC[C@@H](C(=O)Nc2nc3c(s2)CN(C(=O)c2cccc(-c4ncon4)c2)CC3)C1 [Compound 381] | – | 64.1 | 84.8 | 97.7 | 93.4 | – | – | – |
| CC1CCCCN1S(=O)(=O)c1ccccc1C(=O)N1CCc2nc(NC(=O)[C@@H]3CCN(C#N)C3)sc2C1 (stereo partly drawn) [Compound 386] | – | 57.7 | 79.9 | 95.9 | 94.5 | – | – | – |
| N#CN1CC[C@@H](C(=O)Nc2nc3c(s2)CNCC3)C1 [cyanimide amine precursor, (R)-1-cyano-N-(4,5,6,7-tetrahydrothiazolo[5,4-c]pyridin-2-yl)pyrrolidine-3-carboxamide] | – | – | – | – | – | ~40 | 3 | 20 |
